The values below come from patent US20150038527A1, “FUROPYRIDINE DERIVATIVES” (Merck Patent GmbH, priority 2012, published 2015).

For this experiment, the target named is T1, SYK (Homo sapiens, UniProt P43405).
T1 construct: 2.5 nM SYK, 400 nM Biotin-Aha-Aha-KEDPDYEWPSAKK and 10 μM ATP
Put plainly: SYK Flash Plate Assay (enzyme assay). Format: biochemical. The protocol:
The kinase assay is performed either as 384-well Flashplate assay (for e.g. Topcount measurement) or as 384-well Image-Flashplate assay (for LEADseeker measurement).
2.5 nM SYK, 400 nM Biotin-Aha-Aha-KEDPDYEWPSAKK and 10 μM ATP (spiked with 0.3 μCi 33P-ATP/well) are incubated in a total volume of 50 μl (60 mM Hepes, 10 mM MgCl2, 1.2 mM Dithiothreitol, 0.02% Brij35, 0.1% BSA, pH 7.5) with or without test compound for 1 hours at 30° C. The reaction is stopped with 25 μl 200 mM EDTA. After 30 Min at 30° C. the liquid is removed and each well washed thrice with 100 μl 0.9% sodium chloride solution. Non-specific reaction is determined in presence of 0.1 μM Staurosporine. Radioactivity is measured with Topcount (when using Flashplates) or with LEADseeker (when using Image-Flashplates) respectively. Results (e.g. IC50-values) are calculated with program tools provided by the IT-department (e.g. Symyx Assay Explorer, Genedata Screener).
Turning to `COc1cc(-c2cc3ncc(-c4cn[nH]c4)cc3o2)cc(OC)c1OC` [Compound A59, 6-(1H-pyrazol-4-yl)-2-(3,4,5-trimethoxy-phenyl)-furo[3,2-b]pyridine], the IC50 – broadly, the concentration at which inhibition is half-maximal – lay within 3 to 50 µM.

In turn, `COc1ccc(S(N)(=O)=O)cc1-c1cc2nccc(-c3cc[nH]n3)c2o1` [Compound A82, 4-methoxy-3-[7-(1H-pyrazol-3-yl)-furo[3,2-b]pyridin-2-yl]-benzenesulfonamide] yielded a 50% inhibitory concentration (IC50) of less than 0.1 µM. In the case of `COc1cc(-c2cc3nccc(-c4cccc(C(=O)NC(C)(C)CO)c4)c3o2)cc(OC)c1OC` [Compound A40, N-(2-hydroxy-1,1-dimethyl-ethyl)-3-[2-(3,4,5-trimethoxy-phenyl)-furo[3,2-b]pyridin-7-yl]-benzamide] it was 0.3 to 3 µM; in that of `COc1cc(-c2cc3nccc(-c4cccc(C(=O)NCC(O)CO)c4)c3o2)cc(OC)c1OC` (centres unmarked) [Compound A20, N-(2,3-dihydroxy-propyl)-3-[2-(3,4,5-trimethoxy-phenyl)-furo[3,2-b]pyridin-7-yl]-benzamide], 3 to 50 µM.

Turning to `COc1ccc(C(N)=O)cc1-c1cc2nccc(-c3cc(C(N)=O)ccc3OC)c2o1` [Compound A31, 3-[2-(5-carbamoyl-2-methoxy-phenyl)furo[3,2-b]pyridin-7-yl]-4-methoxybenzamide], the IC50 was in the range of 0.3 to 3 µM. In the case of `NC(=O)c1ccc(-c2cc3nccc(-c4cccc(C(=O)N[C@@H]5CCCC[C@@H]5N)c4)c3o2)c(F)c1` [Compound A73, 4-{7-[3-((1R,2S)-2-amino-cyclohexylcarbamoyl)-phenyl]-furo[3,2-b]pyridin-2-yl}-3-fluoro-benzamide], the IC50 lay in the range of 3 to 50 µM. In the case of `COc1cc(-c2cc3nccc(-c4cccc(C(=O)NCC(C)(C)N)c4)c3o2)cc(OC)c1OC` [Compound A32, N-(2-amino-2-methyl-propyl)-3-[2-(3,4,5-trimethoxy-phenyl)-furo[3,2-b]pyridin-7-yl]-benzamide] it was 3 to 50 µM; in that of `COc1ccc(C(=O)NCCN)cc1-c1cc2nccc(-c3c(OC)cccc3OC)c2o1` [Compound A71, N-(2-amino-ethyl)-3-[7-(2,6-dimethoxy-phenyl)-furo[3,2-b]pyridin-2-yl]-4-methoxy-benzamide], 0.3 to 3 µM. In the case of `COc1cc(OCCN)ccc1-c1cc2nccc(-c3cccc(C(=O)NCCO)c3)c2o1` [Compound A29, 3-{2-[4-(2-amino-ethoxy)-2-methoxy-phenyl]-furo[3,2-b]pyridin-7-yl}-N-(2-hydroxy-ethyl)-benzamide], the IC50 was in the range of 3 to 50 µM.

In turn, `COc1ccc(C(N)=O)cc1-c1cc2nccc(-c3ccnc(NC[C@H]4CCCNC4)c3)c2o1` [Compound A90, 4-methoxy-3-(7-{2-[((S)-1-piperidin-3-ylmethyl)-amino]-pyridin-4-yl}-furo[3,2-b]pyridin-2-yl)-benzamide] came in with a half-maximal inhibitory concentration (IC50) of less than 0.1 µM. As for `COc1ccc(C(C)O)cc1-c1ccnc2cc(-c3cc(OC)c(OC)c(OC)c3)oc12` (centres unmarked) [Compound A21, 1-{4-methoxy-3-[2-(3,4,5-trimethoxy-phenyl)-furo[3,2-b]pyridin-7-yl]-phenyl}-ethanol], the IC50 lay in the range of 0.1 to 0.3 µM. The figure for `COc1cc(-c2cc3nccc(-c4ccc5c(c4)ncn5CCN)c3o2)cc(OC)c1OC` [Compound A3, 2-{5-[2-(3,4,5-Trimethoxy-phenyl)-furo[3,2-b]pyridin-7-yl]-benzoimidazol-1-yl}-ethylamine] is 0.3 to 3 µM; for `COc1cc(-c2cc3nccc(-c4cccc(C(=O)N[C@@H]5COC[C@@H]5N)c4)c3o2)cc(OC)c1OC` [Compound A67, N-((3S,4R)-4-amino-tetrahydro-furan-3-yl)-3-[2-(3,4,5-trimethoxy-phenyl)furo[3,2-b]pyridin-7-yl]-benzamide] it is 3 to 50 µM. `COc1cc(-c2cc3nccc(-c4cccc(C(=O)N[C@@H]5C[C@@H]5N)c4)c3o2)cc(OC)c1OC` [Compound A64, N-((1R,2S)-2-amino-cyclopropyl)-3-[2-(3,4,5-trimethoxy-phenyl)-furo[3,2-b]pyridin-7-yl]-benzamide] returned a concentration for half-maximal inhibition (IC50) of 0.3 to 3 µM.

Regarding `COc1cc2[nH]cnc2cc1-c1ccnc2cc(-c3cc(OC)c(OC)c(OC)c3)oc12` [Compound A87, 7-(6-methoxy-1H-benzoimidazol-5-yl)-2-(3,4,5-trimethoxy-phenyl)-furo[3,2-b]pyridine], the IC50 fell in the range of 0.3 to 3 µM.

For `COc1cc(-c2cc3nccc(-c4cccc(C(=O)NC[C@H](O)[C@@H](O)[C@H](O)[C@H](O)CO)c4)c3o2)cc(OC)c1OC` [Compound A28, N-((2S,3R,4R,5R)-2,3,4,5,6-pentahydroxy-hexyl)-3-[2-(3,4,5-trimethoxyphenyl)-furo[3,2-b]pyridin-7-yl]-benzamide], the IC50 fell in the range of 3 to 50 µM.

As for `COc1ccc(C(N)=O)cc1-c1cc2nccc(-c3cc(C(=O)NCCN)ccc3OC)c2o1` [Compound A79, 3-[7-[5-(2-aminoethylcarbamoyl)-2-methoxy-phenyl]furo[3,2-b]pyridin-2-yl]-4-methoxy-benzamide], the IC50 lay within 0.3 to 3 µM.

The molecule `COc1cc(-c2cc3nccc(-c4cccc(C(=O)N[C@@H]5CCC[C@@H]5O)c4)c3o2)cc(OC)c1OC` [Compound A22, N-((1R,2S)-2-hydroxy-cyclopentyl)-3-[2-(3,4,5-trimethoxy-phenyl)-furo[3,2-b]pyridin-7-yl]-benzamide] had an IC50 of 3 to 50 µM. In the case of `COc1cc(-c2cc3nccc(-c4ccc5ncn(CCN)c5c4)c3o2)cc(OC)c1OC` [Compound A8, 2-{6-[2-(3,4,5-trimethoxy-phenyl)-furo[3,2-b]pyridin-7-yl]-benzoimidazol-1-yl}-ethylamine] it was 0.3 to 3 µM.

`COc1ccc(C(N)=O)cc1-c1cc2nccc(-c3ccnc(NCCN)c3)c2o1` [Compound A80, 3-{7-[2-(2-amino-ethylamino)-pyridin-4-yl]-furo[3,2-b]pyridin-2-yl}-4-methoxybenzamide]: the half-maximal inhibitory concentration (IC50) was less than 0.1 µM. The figure for `COc1ccc(S(N)(=O)=O)cc1-c1cc2nccc(-c3c(OC)cccc3OC)c2o1` [Compound A78, 3-[7-(2,6-dimethoxy-phenyl)-furo[3,2-b]pyridin-2-yl]-4-methoxybenzenesulfonamide] is 0.3 to 3 µM. The molecule `COc1cc(-c2cc3nccc(-c4nnc(CCN)o4)c3o2)cc(OC)c1OC` [Compound A102, 2-{5-[2-(3,4,5-trimethoxy-phenyl)-furo[3,2-b]pyridin-7-yl]-[1,3,4]oxadiazol-2-yl}-ethylamine] yielded a half-maximal inhibitory concentration (IC50) of 3 to 50 µM. In the case of `COc1cc(-c2cc3nccc(-c4cc(F)cc(C(=O)NCCCN)c4)c3o2)cc(OC)c1OC` [Compound A61, N-(3-amino-propyl)-3-fluoro-5-[2-(3,4,5-trimethoxy-phenyl)-furo[3,2-b]pyridin-7-yl]-benzamide] it was 3 to 50 µM.

`COc1ccc(C(=O)NCC(C)(C)N)cc1-c1cc2nccc(-c3c(OC)cccc3OC)c2o1` [Compound A68, N-(2-amino-2-methyl-propyl)-3-[7-(2,6-dimethoxy-phenyl)-furo[3,2-b]pyridin-2-yl]-4-methoxy-benzamide] registered an IC50 of 0.3 to 3 µM. Consider `COc1ccc(-c2ncon2)cc1-c1cc2nccc(-c3c(OC)cccc3OC)c2o1` [Compound A85, 7-(2,6-dimethoxy-phenyl)-2-(2-methoxy-5-[1,2,4]oxadiazol-3-yl-phenyl)furo[3,2-b]pyridine], for which the IC50 is less than 0.1 µM.

In turn, `CCc1ccc(OC)c(-c2cc3nccc(-c4cccc(C(=O)N[C@@H]5CCCC[C@@H]5N)c4)c3o2)c1` [Compound A43, N-((1R,2S)-2-amino-cyclohexyl)-3-[2-(5-ethyl-2-methoxy-phenyl)-furo[3,2-b]pyridin-7-yl]-benzamide] gave an IC50 of 0.3 to 3 µM. Consider `COc1cc(-c2cc3nccc(-c4ccc(N(C)C)cc4)c3o2)cc(OC)c1OC` [Compound A65, dimethyl-{4-[2-(3,4,5-trimethoxy-phenyl)-furo[3,2-b]pyridin-7-yl]-phenyl}-amine], for which the IC50 is 3 to 50 µM. `N[C@H]1CCCC[C@H]1NC(=O)c1cccc(-c2ccnc3cc(-c4cccc5c4OCO5)oc23)c1` [Compound A60, N-((1R,2S)-2-amino-cyclohexyl)-3-(2-benzo[1,3]dioxol-4-yl-furo[3,2-b]pyridin-7-yl)-benzamide] registered an IC50 of 0.3 to 3 µM. On to `COc1cc(-c2cc3nccc(-c4cc(F)cc(C(=O)NCCN)c4)c3o2)cc(OC)c1OC` [Compound A55, N-(2-amino-ethyl)-3-fluoro-5-[2-(3,4,5-trimethoxy-phenyl)-furo[3,2-b]pyridin-7-yl]-benzamide], for which the IC50 lay in the range of 0.1 to 0.3 µM.

In turn, `COc1ccc(-c2noc(CN)n2)cc1-c1cc2nccc(-c3c(OC)cccc3OC)c2o1` [Compound A106, C-(3-{3-[7-(2,6-dimethoxy-phenyl)-furo[3,2-b]pyridin-2-yl]-4-methoxy-phenyl}-[1,2,4]oxadiazol-5-yl)-methylamine] yielded a concentration for half-maximal inhibition (IC50) of less than 0.1 µM.

For `COc1ccc(C(N)=O)cc1-c1cc2nccc(-c3c(OC)cc(C(=O)NCCN)cc3OC)c2o1` [Compound A76, N-(2-amino-ethyl)-4-[2-(5-carbamoyl-2-methoxy-phenyl)-furo[3,2-b]pyridin-7-yl]-3,5-dimethoxy-benzamide], the IC50 was less than 0.1 µM. In the case of `COc1ccc(C(N)=O)cc1-c1cc2nccc(-c3cnc(F)cc3C)c2o1` [Compound A54, 3-[7-(6-fluoro-4-methyl-pyridin-3-yl)-furo[3,2-b]pyridin-2-yl]-4-methoxybenzamide] it was 3 to 50 µM.
